Data from patent US11628179B2, “Compounds for treating and preventing extracellular histone mediated pathologies” (priority 2017, dated 2023).
Where “and” joins values, the source holds several entries; their conditions need not be identical. Equal entries are not always repeated. Structures can show the parent of a compound that is named as a salt.

Legend:
[1] = HPLC analysis of mCBS in buffer formulations after 28 days; format: physicochemical; settings: phosphate or citrate buffer, 25±2° C./60% RH and 40±2° C./75% RH
human plasma proteins = assay: Plasma protein binding by ultrafiltration, human plasma; format: in vitro ADME; settings: for Concentration of mCBS, 200 ng/mL Post-filter / Concentration of mCBS, 200 ng/mL Pre-filter / Concentration of mCBS, 2000 ng/mL Post-filter / Concentration of mCBS, 2000 ng/mL Pre-filter: replicates and Mean
Method: Protein binding was assessed by an ultrafiltration method using Centrifree® Ultrafiltration Devices with a 30000 dalton molecular weight cut-off point. Briefly, known concentrations of mCBS (as free base) were added to human, rat and dog plasma samples and incubated for 20 min at 37° C. The samples were then subject to ultrafiltration to separate protein bound and unbound drug.
mCBS stock solutions (10 μL) were spiked into solutions of each test matrix (490 μL) as listed below in Table 9 to have a final concentration of 200 ng/mL & 2000 ng/m L.
Spiked samples were then incubated at 37° C. for 20 minutes in a water bath. Aliquots of the samples from each test group (500 μL) were transferred to the ultrafiltration devices (n=3) and centrifuged for 20 minutes at 1000 g. After centrifugation, aliquots of the ultrafiltrates (50 μL) were transferred to separate test tubes for extraction, alongside duplicate aliquots of the samples prior to ultrafiltration from each test group.
For quantification of samples before ultrafiltration, samples were analysed against a freshly prepared standard curve in plasma.

Sprague Dawley rats = system: Sprague Dawley rats
Method: This study examined toxicity from repeat IV administration of mCBS in rats over 7 days with doses up to 1000 mg/kg.
The acute tolerability and toxicity of β-O-methyl cellobioside sulfate was assessed in Sprague Dawley rats following daily intravenous dose administration for a period of seven days. A total of four groups of n=3 adult female rats were treated with 0, 100, 300 and 1000 mg/kg doses of mCBS in the form of the sodium salt (mCBS.Na) in this repeated dose study. […] The rats were then observed for 7 days prior to termination with gross necropsy and terminal haematology and biochemistry analyses. An additional group of n=3 male rats were also treated at the highest dose of 1000 mg/kg according to the same study design.

Wistar rats [2] = assay: Rat caecal ligation and puncture (CLP), moderate sepsis; format: in vivo
Method: Male Wistar rats (n=8/group) underwent laparotomy, caecal ligation and puncture (CLP) to stimulate faecal peritonitis and subsequent sepsis, then treated with saline (Control CLP) or 50 mg/kg of mCBS at 0, 5 and 10 hr post-op via i.p. injection and monitored for 20 hr. Once rats reached a state of severe morbidity they were humanely euthanased at which point a death was recorded.
Rat caecal ligation and puncture (CLP) assay for sepsis. The CLP assay was performed in male Wistar rats as previously described (see Hubbard, W. J. et al. Cecal ligation and puncture. Shock 24 Suppl 1, 52-57 (2005).). Test compounds (50 mg kg^−1) dissolved in saline or an equivalent volume of saline only (Control cohort) were administered i.p. 5 min pre-CLP and 5, 10 and 15 h post-op until cessation of the experiment at 20 h. Sham-CLP rats underwent the same procedure, however, the caecum was not ligated or punctured and these rats received saline at the same times as above. At the conclusion of the experimental time period (20 h) or when morbidity required ethical euthanasia, the rats were anaesthetised and blood was collected via cardiac puncture into EDTA for subsequent analysis of liver (ALT) and kidney (creatinine) function by the Department of Pathology, The Canberra Hospital. The propensity for clots to form within the blood samples of the saline treated control CLP animals (despite the presence of EDTA) prevented successful analysis of plasma samples from all animals.

Wistar rats [3] = assay: Rat ischemia reperfusion tissue flap model; format: in vivo; settings: 50 mg/kg i.p., 72 h
Source text: Rat ischemia reperfusion tissue flap model. The procedure employed is largely based on a previously described method (Askar, I., Oktay, M. F., Gurlek, A. & Bac, B. Protective effects of some antineoplastic agents on ischemia-reperfusion injury in epigastric island skin flaps. Microsurgery 26, 193-199, doi:10.1002/micr.20193 (2006)). Briefly, male Wistar rats were anaesthetised, locally depilated and a 3 cm by 6 cm fasciocutaneous flap was excised leaving the vascular pedicle intact. […] The clamp was removed […] post-application permitting returned blood flow to the flap. Test compounds (50 mg kg^−1) or saline were administered i.p. 5 min prior to clamp application and 5 min following its removal. The rats were monitored for a total experimental period of 72 h during which rats received additional compound or saline i.p. at 24 and 48 h post-op. The ‘Control No Clamp’ rats had the tissue flap excised and rubber placed underneath prior to re-suturing, however, the vessel was not clamped and they received saline at the same time points as the other rats. At the end of the experimental period the viability of the flaps was determined by the percentage of black necrotic or reddened areas vs pink viable areas. […]

[4] = Pharmacokinetics, 5 hour intravenous infusion; format: in vivo, rat
Method: The pharmacokinetics (PK) of mCBS were studied following intravenous administration as an infusion over a 5 hours period to male Sprague Dawley rats. In this study the pharmacokinetics of the mCBS compound were investigated following intravenous infusion. The compound was formulated using Hartman's solution and administered to a group of n=3 rats at the rate of 25.3 mg/kg/h (total dose: 126.5 mg/kg; Group 1) and to a second group of n=3 rats at the rate of 50.6 mg/kg/h (total dose: 253 mg/kg; Group 2).
A total of six blood PK samples were collected from each rat at time points ranging from pre-dose to 5 hours after the start of the infusion. The resulting blood samples were processed to plasma, and subsequently analysed for the concentration of mCBS using an LC-MS/MS based method. Phoenix 64 WinNonlin® software was used to estimate area under the concentration versus time curve (AUC) values over the 0 to 5 h infusion interval. Values for concentration at steady state (Css) and clearance (Cl) were also estimated.

## CO[C@@H]1O[C@H](COS(=O)(=O)O)[C@@H](O[C@@H]2O[C@H](COS(=O)(=O)O)[C@@H](OS(=O)(=O)O)[C@H](OS(=O)(=O)O)[C@H]2OS(=O)(=O)O)[C@H](OS(=O)(=O)O)[C@H]1OS(=O)(=O)O [mCBS, β-O-methyl cellobioside sulfate]
[1]
  variation from nominal after 28 days: ~2 % of nominal
Human plasma proteins; 200 ng/mL
  Plasma protein binding (%): 22.3%
Human plasma proteins; 2000 ng/mL
  Plasma protein binding (%): 15.8%
Human plasma proteins
  Concentration of mCBS, 200 ng/mL Post-filter: 181 ng/mL and 150 ng/mL and 169 ng/mL
  Concentration of mCBS, 200 ng/mL Pre-filter: 217 ng/mL and 213 ng/mL
  Concentration of mCBS, 2000 ng/mL Post-filter: 1860 ng/mL and 1750 ng/mL and 1770 ng/mL
  Concentration of mCBS, 2000 ng/mL Pre-filter: 2190 ng/mL and 2070 ng/mL
Human plasma proteins; mean
  Concentration of mCBS, 200 ng/mL Post-filter: 167 ng/mL
  Concentration of mCBS, 200 ng/mL Pre-filter: 215 ng/mL
  Concentration of mCBS, 2000 ng/mL Post-filter: 1793 ng/mL
  Concentration of mCBS, 2000 ng/mL Pre-filter: 2130 ng/mL
Sprague Dawley rats; daily IV bolus 100, 300 and 1000 mg/kg for 7 days
  tolerability: well tolerated at all dose levels
Sprague Dawley rats; daily IV bolus for 7 days, corrected for purity and sodium content
  MTD, as free base: 815 mg/kg
Sprague Dawley rats; daily IV bolus for 7 days, dose as sodium salt form
  MTD: 1000 mg/kg
Sprague Dawley rats; daily IV bolus up to 1000 mg/kg for 7 days
  Hematology and biochemistry parameters: unremarkable
Wistar rats [2]; 50 mg/kg i.p. at 0, 5 and 10 hr post-op, monitored 20 hr
  survival rate: 100%
Wistar rats [2]; 50 mg/kg i.p., Control CLP 1.1±0.2, p=0.03
  circulating LDH levels: 0.6±0.1 U/L×10^3
Wistar rats [2]; mCBS vs Control CLP
  ALT or creatinine levels between the groups: No differences
Wistar rats [3]
  viable area of the skin flap: consistently and significantly increased the viable area of the skin flap
[4]; Group 1, 25.3 mg/kg/h
  Cl, mean (±SEM): 0.601 (±0.081) l/h/kg
  Css, mean (±SEM): 58,400 (±6,920) ng/ml
[4]; Group 1, IV infusion 25.3 mg/kg/h for 5 h
  AUC 0-5 h infusion interval, mean (±SEM): 260,000 (±30,200) ng·h/mL
[4]; Group 2, 50.6 mg/kg/h
  Cl, mean (±SEM): 0.571 (±0.025)
  Css, mean (±SEM): 120,000 (±5,560) ng/ml
[4]; Group 2, IV infusion 50.6 mg/kg/h for 5 h
  AUC 0-5 h infusion interval, mean (±SEM): 532,000 (±25,500) ng·h/mL
[4]; IV infusion
  time of infusion to reach steady state plasma level (Css): 2 h
[4]; IV infusion 5 h
  Css and AUC at 50 mg/kg/hr compared to 25 mg/kg/hr: 2 fold
[4]; rats treated with the higher dose
  APTT (coagulation test): higher APTT score compared to the reference range
